Reference: publication PMC5418314, “First-in-human phase I study of SOR-C13, a TRPV6 calcium channel inhibitor, in patients with advanced solid tumors” (Investigational New Drugs, 2017)
Ends that are not written are not given here.

Assays:
[1] = GLP toxicology study, daily IV bolus for 28 days, dog; assay type: in vivo, beagle dogs
Experimental: Anatomical pathology provided a No Observable Adverse Effect Level (NOAEL) of 200 mg/kg/day for rats. […] With results indicating antitumor activity in animal studies, a small toxicological footprint, a novel oncology target and a mechanism of action supported by the literature, SOR-C13 was formulated for intravenous injection (IV) for clinical evaluation. Here we present results of the ‘first-in-human’, Phase I clinical study evaluating SOR-C13 in adults with advanced solid tumors of epithelial origin refractory to all standard-of-care treatments.

[2] = Phase I safety and tolerability (NCI CTCAE v4.0, DLT) in patients with advanced solid tumors; assay type: in vivo, human
Experimental: Dose-escalation was carried out according to a standard 3 + 3 design. At each dose level, cohorts of 3 to 6 patients were scheduled to receive two 21-day cycles of SOR-C13 treatment. SOR-C13 was administered on days 1–3 and 8–10 of the 21-day cycle was administered by IV infusion. The study drug (500 mg/vial) was dissolved in water for injection (2 mL) and diluted in saline prior to infusion to provide a 250 mL (total) infusion volume. Infusion time was increased after the first five patients from the initial 20 min to 90 min with the aim of increasing the safety and tolerability of the drug. In the event of clinically meaningful response (tumor response or stable disease), additional SOR-C13 cycles were offered to study patients. Post-treatment follow-up was completed one and two months after completion of SOR-C13 treatment.
A Safety Monitoring Committee (SMC) oversaw the safety aspects of the study. Safety endpoints included: incidence of adverse events (AEs) and serious AEs (SAEs), withdrawals due to AEs, Dose Limiting Toxicities (DLTs), infusion reactions, deaths on study, vital signs, electrocardiogram (ECGs), clinical laboratory parameters and changes to the treatment regimen (dose delay, dose decrease) due to AEs. The National Cancer Institute (NCI) Common Terminology Criteria for Adverse Events (CTCAE) Version 4.0 was used to grade the severity of AEs.
Based on the safety data from the first two cohorts, the regulatory authorities approved a revision of the definition to “one occurrence of ≥Grade 3 toxicity or one occurrence of Grade 2 hypocalcemia, over the first 21-day cycle”. The latter definition was used for the subsequent four cohorts in the study.

[3] = Cohort 1 5.5 mg/kg N = 3, 20-min infusions
[4] = Cohort 1, 5.50 mg/kg, C1 D2, Dose# 2
[5] = Cohort 1, 5.50 mg/kg, C1 D8, Dose# 4
[6] = Cohort 2 2.75 mg/kg N = 2, 20-min infusions
[7] = Cohort 2, 2.75 mg/kg, C1 D2, Dose# 2
[8] = Cohort 3 1.375 mg/kg N = 3, 90-min infusions
[9] = Cohort 4 2.75 mg/kg N = 6, 90-min infusions
[10] = Cohort 4, 2.75 mg/kg, C1 D3, Dose# 3
[11] = Cohort 5 4.13 mg/kg N = 3, 90-min infusions
[12] = Cohort 6 6.20 mg/kg N = 6, 90-min infusions
[13] = Cohort 6, 6.20 mg/kg, C1 D8, Post 3
[14] = Cohort 6, 6.20 mg/kg, C1 D18, Post 6

## KEFLHPSKVDLPR [SOR-C13]
[1]
  antigenicity: no antigenicity
  cardiovascular toxicity: no cardiovascular toxicity
  toxicity: minimal toxicity
[2]; All Patients N = 23
  Any TEAEs, Event: 185
  TEAEs Definitely related, Event: 5
  TEAEs Possibly related, Event: 29
  TEAEs Probably related, Event: 7
  TEAEs Remotely/Unlikely related, Event: 10
  TEAEs Remotely/Unlikely related, Patient: 4 (17)
  TEAEs Unrelated, Event: 134
  TEAEs Unrelated, Patient: 21 (91)
[2]; [3]
  Any TEAEs, Event: 49
  Any TEAEs, Patient: 3 (100)
  TEAEs Definitely related, Event: 5
  TEAEs Definitely related, Patient: 2 (67)
  TEAEs Possibly related, Event: 3
  TEAEs Possibly related, Patient: 2 (67)
  TEAEs Probably related, Event: 3
  TEAEs Probably related, Patient: 2 (67)
  TEAEs Remotely/Unlikely related, Event: 4
  TEAEs Remotely/Unlikely related, Patient: 1 (33)
  TEAEs Unrelated, Event: 34
  TEAEs Unrelated, Patient: 3 (100)
[2]; [4]
  DLT Blood calcium decreased, Relationship: Probably related
  DLT Blood calcium decreased, Severity: Grade 2
[2]; [5]
  DLT Blood calcium decreased, Relationship: Definitely related
  DLT Blood calcium decreased, Severity: Grade 2
[2]; [6]
  Any TEAEs, Event: 11
  Any TEAEs, Patient: 2 (100)
  TEAEs Definitely related, Event: 0
  TEAEs Definitely related, Patient: 0 (0)
  TEAEs Possibly related, Event: 0
  TEAEs Possibly related, Patient: 0 (0)
  TEAEs Probably related, Event: 1
  TEAEs Probably related, Patient: 1 (50)
  TEAEs Remotely/Unlikely related, Event: 0
  TEAEs Remotely/Unlikely related, Patient: 0 (0)
  TEAEs Unrelated, Event: 10
  TEAEs Unrelated, Patient: 2 (100)
[2]; [7]
  DLT Blood calcium decreased, Relationship: Probably related
  DLT Blood calcium decreased, Severity: Grade 2
[2]; [8]
  Any TEAEs, Event: 25
  Any TEAEs, Patient: 3 (100)
  TEAEs Definitely related, Event: 0
  TEAEs Definitely related, Patient: 0 (0)
  TEAEs Possibly related, Event: 0
  TEAEs Possibly related, Patient: 0 (0)
  TEAEs Probably related, Event: 0
  TEAEs Probably related, Patient: 0 (0)
  TEAEs Remotely/Unlikely related, Event: 2
  TEAEs Remotely/Unlikely related, Patient: 1 (33)
  TEAEs Unrelated, Event: 23
  TEAEs Unrelated, Patient: 3 (100)
[2]; Cohort 3 (1.375 mg/kg), 90-min infusions
  frequency of drug-related TEAEs: 0%
[2]; [9]
  Any TEAEs, Event: 52
  Any TEAEs, Patient: 6 (100)
  TEAEs Definitely related, Event: 0
  TEAEs Definitely related, Patient: 0 (0)
  TEAEs Possibly related, Event: 11
  TEAEs Possibly related, Patient: 4 (67)
  TEAEs Probably related, Event: 0
  TEAEs Probably related, Patient: 0 (0)
  TEAEs Remotely/Unlikely related, Event: 4
  TEAEs Remotely/Unlikely related, Patient: 2 (33)
  TEAEs Unrelated, Event: 37
  TEAEs Unrelated, Patient: 6 (100)
[2]; Cohort 4 (2.75 mg/kg), 90-min infusions
  frequency of drug-related TEAEs: 67%
[2]; [10]
  DLT Ionized calcium decreased, Relationship: Possibly related
  DLT Ionized calcium decreased, Severity: Grade 2
[2]; [11]
  Any TEAEs, Event: 14
  Any TEAEs, Patient: 3 (100)
  TEAEs Definitely related, Event: 0
  TEAEs Definitely related, Patient: 0 (0)
  TEAEs Possibly related, Event: 5
  TEAEs Possibly related, Patient: 3 (100)
  TEAEs Probably related, Event: 3
  TEAEs Probably related, Patient: 1 (33)
  TEAEs Remotely/Unlikely related, Event: 0
  TEAEs Remotely/Unlikely related, Patient: 0 (0)
  TEAEs Unrelated, Event: 6
  TEAEs Unrelated, Patient: 2 (67)
[2]; Cohort 5 (4.13 mg/kg), 90-min infusions
  frequency of drug-related TEAEs: 100%
[2]; [12]
  Any TEAEs, Event: 34
  Any TEAEs, Patient: 6 (100)
  TEAEs Definitely related, Event: 0
  TEAEs Definitely related, Patient: 0 (0)
  TEAEs Possibly related, Event: 10
  TEAEs Possibly related, Patient: 6 (100)
  TEAEs Probably related, Event: 0
  TEAEs Probably related, Patient: 0 (0)
  TEAEs Remotely/Unlikely related, Event: 0
  TEAEs Remotely/Unlikely related, Patient: 0 (0)
  TEAEs Unrelated, Event: 24
  TEAEs Unrelated, Patient: 5 (83)
[2]; Cohort 6 (6.20 mg/kg), 90-min infusions
  frequency of drug-related TEAEs: 100%
[2]; [13]
  DLT Atrial fibrillation, Relationship: Unrelated
  DLT Atrial fibrillation, Severity: Grade 3
[2]; [14]
  DLT Anaemia, Relationship: Unrelated
  DLT Anaemia, Severity: Grade 3
[2]; N = 23
  Grade 4 TEAEs: No Grade 4 TEAE occurred
  TEAEs by MedDRA SOC: Gastrointestinal disorders, patients: 48%
  TEAEs by MedDRA SOC: General disorders and administration site conditions, patients: 44%
  TEAEs by MedDRA SOC: Infections and infestations, patients: 48%
  TEAEs by MedDRA SOC: Investigations, patients: 44%
  TEAEs by MedDRA SOC: Metabolism and nutrition disorders, patients: 65%
  drug-related Serious Adverse Events (SAEs): No drug-related Serious Adverse Events (SAEs) occurred
[2]; N = 23, MedDRA preferred term
  TEAE Anaemia, percentage of patients: 30%
  TEAE Aspartate amino transferase increased, percentage of patients: 17%
  TEAE Blood Calcium Decreased, percentage of patients: 22%
  TEAE Blood alkaline phosphatase increased, percentage of patients: 13%
  TEAE Constipation, percentage of patients: 17%
  TEAE Cough, percentage of patients: 17%
  TEAE Decreased Appetite, percentage of patients: 22%
  TEAE Diarrhoea, percentage of patients: 13%
  TEAE Fatigue, percentage of patients: 30%
  TEAE Hypercalcaemia, percentage of patients: 13%
  TEAE Hyperkalaemia, percentage of patients: 13%
  TEAE Hypoalbuminaemia, percentage of patients: 30%
  TEAE Hypocalcaemia, percentage of patients: 13%
  TEAE Nausea, percentage of patients: 22%
  TEAE Urinary Tract Infection, percentage of patients: 30%
[2]; N = 23, in thirteen patients
  total number of Grade 3 TEAEs: 18
[2]; all cohorts, N = 23, first 21-day cycle
  patients with DLTs: 26.1%
[2]; all patients N = 23
  drug-related blood calcium decrease, patients: 13%
  drug-related decreased appetite, patients: 9%
  drug-related hypoalbuminemia, patients: 30%
  drug-related hypocalcemia, patients: 13%
  drug-related increased aspartate aminotransferase (AST), patients: 9%
[2]; doses up to 6.2 mg/kg
  Maximal Tolerated Dose (MTD): not established
[2]; patients receiving 90-min infusions (n = 18)
  drug-related hypocalcemia, patients: 13%
[2]; possibly, probably or definitely related, total population N = 23
  patients with TEAEs related to the study drug: 70%
[2]; urticaria, ALT increased, AST increased, headache, hypokalaemia
  Grade 3 TEAEs assessed as related to the study drug: Five of the 18
[2]; within two months after the last study drug administration
  deaths during treatment or post-treatment follow-up: No deaths occurred
